Results as given in PubChem BioAssay (NCI).
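Where inhibition never reached the appropriate level, the endpoint shown equals the highest concentration tested. Otherwise, values were interpolated linearly from a five-concentration, 48-hour dose response in 96-well plates. TGI marks complete inhibition of growth.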

Experiments:
Assay in all cases: inhibition of tumour cell growth, NCI panel, 48 h
ACHN renal = test system: ACHN renal
U251 CNS = test system: U251 CNS
SR leukemia = test system: SR leukemia
MDA-MB-435 = test system: MDA-MB-435
NCI-H460 lung = test system: NCI-H460 lung
HL-60(TB) leukemia = test system: HL-60(TB) leukemia
TK-10 renal = test system: TK-10 renal
EKVX NSCLC = test system: EKVX NSCLC
RXF 393 renal = test system: RXF 393 renal
SK-MEL-28 melanoma = test system: SK-MEL-28 melanoma
SNB-75 CNS = test system: SNB-75 CNS
SF-268 CNS = test system: SF-268 CNS
NCI/ADR-RES ovarian = test system: NCI/ADR-RES ovarian
MOLT-4 leukemia = test system: MOLT-4 leukemia
HOP-62 NSCLC = test system: HOP-62 NSCLC
SK-MEL-2 melanoma = test system: SK-MEL-2 melanoma
SF-539 CNS = test system: SF-539 CNS
A549 NSCLC = test system: A549 NSCLC
HCC-2998 colon = test system: HCC-2998 colon
MCF7 breast = test system: MCF7 breast
COLO 205 colon = test system: COLO 205 colon
SF-295 CNS = test system: SF-295 CNS
BT-549 breast = test system: BT-549 breast
NCI-H522 lung = test system: NCI-H522 lung
NCI-H23 lung = test system: NCI-H23 lung
HS 578T breast = test system: HS 578T breast
UACC-62 melanoma = test system: UACC-62 melanoma
MALME-3M melanoma = test system: MALME-3M melanoma
SNB-19 CNS = test system: SNB-19 CNS
K-562 leukemia = test system: K-562 leukemia
HCT-116 colon = test system: HCT-116 colon
CAKI-1 renal = test system: CAKI-1 renal
HT29 colon = test system: HT29 colon
NCI-H226 lung = test system: NCI-H226 lung
IGROV1 ovarian = test system: IGROV1 ovarian
OVCAR-3 ovarian = test system: OVCAR-3 ovarian
UACC-257 melanoma = test system: UACC-257 melanoma
RPMI-8226 leukemia = test system: RPMI-8226 leukemia
KM12 colon = test system: KM12 colon
HCT-15 colon = test system: HCT-15 colon
HOP-92 NSCLC = test system: HOP-92 NSCLC
OVCAR-5 ovarian = test system: OVCAR-5 ovarian
SK-OV-3 ovarian = test system: SK-OV-3 ovarian
786-0 renal = test system: 786-0 renal
CCRF-CEM leukemia = test system: CCRF-CEM leukemia
SK-MEL-5 melanoma = test system: SK-MEL-5 melanoma
OVCAR-8 ovarian = test system: OVCAR-8 ovarian
UO-31 renal = test system: UO-31 renal
MDA-MB-231 breast = test system: MDA-MB-231 breast
PC-3 prostate = test system: PC-3 prostate
M14 melanoma = test system: M14 melanoma
SW-620 colon = test system: SW-620 colon

Measured: TGI

O=S(=O)(O)c1ccc(N=Nc2ccc(N=Nc3c(O)ccc4ccccc34)c(S(=O)(=O)O)c2)cc1
> 100 µM: ACHN renal | U251 CNS | SR leukemia | MDA-MB-435 | NCI-H460 lung | HL-60(TB) leukemia | TK-10 renal | EKVX NSCLC | RXF 393 renal | SK-MEL-28 melanoma | SNB-75 CNS | SF-268 CNS | NCI/ADR-RES ovarian | MOLT-4 leukemia | HOP-62 NSCLC | SK-MEL-2 melanoma | SF-539 CNS | A549 NSCLC | HCC-2998 colon | MCF7 breast | COLO 205 colon | SF-295 CNS | BT-549 breast | NCI-H522 lung | NCI-H23 lung | HS 578T breast | UACC-62 melanoma | MALME-3M melanoma | SNB-19 CNS | K-562 leukemia | HCT-116 colon | CAKI-1 renal | HT29 colon | NCI-H226 lung | IGROV1 ovarian | OVCAR-3 ovarian | UACC-257 melanoma | RPMI-8226 leukemia | KM12 colon | HCT-15 colon | HOP-92 NSCLC | OVCAR-5 ovarian | SK-OV-3 ovarian | 786-0 renal | CCRF-CEM leukemia | SK-MEL-5 melanoma | OVCAR-8 ovarian | UO-31 renal | MDA-MB-231 breast | PC-3 prostate | M14 melanoma | SW-620 colon
